Reference: patent US5686637A, “Antifungal agent” (Merck & Co., Inc., priority 1995, dated 1997)
Converted amounts (≈) assume the structure as drawn.

Legend:
C. albicans (CLY539) = assay: microbroth dilution assay (MIC/MFC), C. albicans (CLY539); type: cell-based; details: Candida albicans, 24 h
Experimental: (§1) In the microbroth dilution assay, microorganisms were selected by streaking a yeast culture on Sabouraud dextrose agar (SDA) incubating for 24-48 hours at 35°-37° C., thereafter selected 3 to 5 characteristic colonies and transferring to a fresh plate and incubating under similar conditions. From the regrowth, 3 to 5 colonies were selected and suspended in. 10 milliliters of YM broth (Dffco) and incubated for 4 hours at 35°-37° C. shaking at 225 rpm. The 4 hour broth cultures were adjusted optically to 86% transmission resulting in a concentration of 1-5×10^6 cfu/ml which was further diluted 1:100 in YNBD (yeast nitrogen base with 1% dextrose) to obtain a concentration of 1-5×10^4 cfu/ml for use as inocula.
(§2) The test compound, Compound I, was prepared as a stock solution of 128 μg/ml in 20% methanol and 75 μl of said solution delivered to each well in column 1 of a 96-well, U-bottomed microtiter plate. The compounds in column 1 were then serially diluted two-fold to yield concentrations from 32 μg/ml to 0.15 μg/ml.
as §2, with “Amphotericin, the control” for “The test”, “compound,” for “compound, Compound I,”, “512” for “128”, “10% DMSO” for “20% methanol”, “128” for “32”, “0.6” for “0.15”
(§3) The plates containing the diluted compounds were then inoculated with 75 μl/well of the appropriate microorganism and incubated for 48 hours at 35°-37° C. with MIC (minimum inhibitory concentration) determinations carried out after 24 hours of incubation. Growth and sterility controls for each organism and sterility checks for the compounds also were carded out.
(§4) After recording MICs at 24 hours, the microtiter plates were shaken gently to resuspend the cells. A 1.5 μl sample was transferred from each well of the 96-well microtiter plate to a single reservoir inoculum plate containing SDA. The inoculated SDA and corresponding microtiter plates were incubated for 24 hours at 35°-37° C. For Cryptococus neoformans, SDA plates were inoculated at 48 hours after recording MICs and incubated 48 hours before reading the MFC. MFC is the lowest concentration of compound at which either no growth or growth of ≤4 colonies occur.

[1] = system: Cryptococcus neoformans (MY 2062); assay: microbroth dilution assay (MIC), Cryptococcus neoformans (MY 2062); type: cell-based; details: Cryptococcus neoformans, 24 h, read-out: Minimum Inhibitory Concentration (MIC)
Experimental: as §1
as §2, with “μg/ml. […]” for “μg/ml.”
(§5) After recording MICs at 24 hours, the microtiter plates were shaken gently to resuspend the cells. […] For Cryptococus neoformans, SDA plates were inoculated at 48 hours after recording MICs and incubated 48 hours before reading the MFC. […]

[2] = system: C. parapsilosis (MY 1010); assay: microbroth dilution assay (MIC/MFC), C. parapsilosis (MY 1010); type: cell-based; details: Lodderomyces parapsilosis, 24 h
Experimental: as §1, §2
as §2, with “Amphotericin, the control” for “The test”, “compound,” for “compound, Compound I,”, “512” for “128”, “10% DMSO” for “20% methanol”, “128” for “32”, “0.6” for “0.15”
as §3, §4

[3] = system: Saccharomyces cerevisiae (MY 2140); assay: microbroth dilution assay (MIC/MFC), Saccharomyces cerevisiae (MY 2140); type: cell-based; details: Saccharomyces cerevisiae, 24 h
Experimental: as §1, §2
as §2, with “Amphotericin, the control” for “The test”, “compound,” for “compound, Compound I,”, “512” for “128”, “10% DMSO” for “20% methanol”, “128” for “32”, “0.6” for “0.15”
as §3, §4

A. fumigatus (5668) = assay: microbroth dilution assay (MIC), A. fumigatus (5668); type: cell-based; details: Aspergillus fumigatus, 24 h, read-out: Minimum Inhibitory Concentration (MIC)
Experimental: as §1
as §2, with “μg/ml. […]” for “μg/ml.”
as §5

[4] = system: C. guillermondii (MY 1019); assay: microbroth dilution assay (MIC/MFC), C. guillermondii (MY 1019); type: cell-based; details: 24 h
Experimental: as §1, §2
as §2, with “Amphotericin, the control” for “The test”, “compound,” for “compound, Compound I,”, “512” for “128”, “10% DMSO” for “20% methanol”, “128” for “32”, “0.6” for “0.15”
as §3, §4

[5] = system: Aspergillus fumigatus (MF 4839); assay: microbroth dilution assay (MIC), Aspergillus fumigatus (MF 4839); type: cell-based; details: Aspergillus fumigatus, 24 h, read-out: Minimum Inhibitory Concentration (MIC)
Experimental: as §1
as §2, with “μg/ml. […]” for “μg/ml.”
as §5

S. cerevisiae (MY 2141) = assay: microbroth dilution assay (MIC/MFC), S. cerevisiae (MY 2141); type: cell-based; details: Saccharomyces cerevisiae
Experimental: as §1
as §2, with “μg/ml. […]” for “μg/ml.”
as §5

C. albicans (CA2) = assay: microbroth dilution assay (MIC/MFC), C. albicans (CA2); type: cell-based; details: Candida albicans, 24 h
Experimental: as §1, §2
as §2, with “Amphotericin, the control” for “The test”, “compound,” for “compound, Compound I,”, “512” for “128”, “10% DMSO” for “20% methanol”, “128” for “32”, “0.6” for “0.15”
as §3, §4

C. topicalis (MY1012) = assay: microbroth dilution assay (MIC/MFC), C. topicalis (MY1012); type: cell-based; details: 24 h
Experimental: as §1, §2
as §2, with “Amphotericin, the control” for “The test”, “compound,” for “compound, Compound I,”, “512” for “128”, “10% DMSO” for “20% methanol”, “128” for “32”, “0.6” for “0.15”
as §3, §4

[6] = system: Candida albicans (MY 1055); assay: microbroth dilution assay (MIC/MFC), Candida albicans (MY 1055); type: cell-based; details: Candida albicans, 24 h
Experimental: as §1, §2
as §2, with “Amphotericin, the control” for “The test”, “compound,” for “compound, Compound I,”, “512” for “128”, “10% DMSO” for “20% methanol”, “128” for “32”, “0.6” for “0.15”
as §3, §4

C. glabrata (MY1381) = assay: microbroth dilution assay (MIC/MFC), C. glabrata (MY1381); type: cell-based; details: Nakaseomyces glabratus, 24 h
Experimental: as §1, §2
as §2, with “Amphotericin, the control” for “The test”, “compound,” for “compound, Compound I,”, “512” for “128”, “10% DMSO” for “20% methanol”, “128” for “32”, “0.6” for “0.15”
as §3, §4

[7] = system: C. pseudotropicalis (MY 2099); assay: microbroth dilution assay (MIC/MFC), C. pseudotropicalis (MY 2099); type: cell-based, Candida pseudotropicalis; details: Kluyveromyces marxianus, 24 h
Experimental: as §1, §2
as §2, with “Amphotericin, the control” for “The test”, “compound,” for “compound, Compound I,”, “512” for “128”, “10% DMSO” for “20% methanol”, “128” for “32”, “0.6” for “0.15”
as §3, §4

C. tropicalis (MY1124) = assay: microbroth dilution assay (MIC/MFC), C. tropicalis (MY1124); type: cell-based; details: Candida tropicalis, 24 h
Experimental: as §1, §2
as §2, with “Amphotericin, the control” for “The test”, “compound,” for “compound, Compound I,”, “512” for “128”, “10% DMSO” for “20% methanol”, “128” for “32”, “0.6” for “0.15”
as §3, §4

[8] = read-out: Minimum Fungicidal Concentration (MFC)
[9] = read-out: Minimum Inhibitory Concentration (MIC)

C[C@@H]1[C@H](O)[C@@H](C)/C=C/C=C/C=C/C=C/C=C/C=C/C=C/[C@H](O[C@@H]2O[C@H](C)[C@@H](O)[C@H](N)[C@@H]2O)C[C@@H]2O[C@](O)(C[C@@H](O)C[C@@H](O)[C@H](O)CC[C@@H](O)C[C@@H](O)CC(=O)O[C@H]1C)C[C@H](O)[C@H]2C(=O)O [Amphotericin B]
MFC (C. albicans (CLY539); [8]): 2 µg/mL (≈ 2.16 µM) | MIC (C. albicans (CLY539); [9]): 1 µg/mL (≈ 1.08 µM) | MIC [1]: 1 µg/mL (≈ 1.08 µM) | MFC [2, 8]: 1 µg/mL (≈ 1.08 µM) | MIC [2, 9]: 1 µg/mL (≈ 1.08 µM) | MFC [3, 8]: 1 µg/mL (≈ 1.08 µM) | MIC [3, 9]: 1 µg/mL (≈ 1.08 µM) | MIC (A. fumigatus (5668)): 2 µg/mL (≈ 2.16 µM) | MFC [4, 8]: 2 µg/mL (≈ 2.16 µM) | MIC [4, 9]: 1 µg/mL (≈ 1.08 µM) | MIC [5]: 2 µg/mL (≈ 2.16 µM) | MIC (S. cerevisiae (MY 2141); 24 h, 35°-37° C., read-out: Minimum Inhibitory Concentration (MIC)): 1 µg/mL (≈ 1.08 µM) | MFC (S. cerevisiae (MY 2141); no growth or ≤4 colonies on SDA after 24 h, read-out: Minimum Fungicidal Concentration (MFC)): 1 µg/mL (≈ 1.08 µM) | MFC (C. albicans (CA2); [8]): 1 µg/mL (≈ 1.08 µM) | MIC (C. albicans (CA2); [9]): 1 µg/mL (≈ 1.08 µM) | MFC (C. topicalis (MY1012); [8]): 16 µg/mL (≈ 17.3 µM) | MIC (C. topicalis (MY1012); [9]): 16 µg/mL (≈ 17.3 µM) | MFC [6, 8]: 1 µg/mL (≈ 1.08 µM) | MIC [6, 9]: 1 µg/mL (≈ 1.08 µM) | MFC (C. glabrata (MY1381); [8]): 2 µg/mL (≈ 2.16 µM) | MIC (C. glabrata (MY1381); [9]): 2 µg/mL (≈ 2.16 µM) | MFC [7, 8]: 2 µg/mL (≈ 2.16 µM) | MIC [7, 9]: 2 µg/mL (≈ 2.16 µM) | MFC (C. tropicalis (MY1124); [8]): 2 µg/mL (≈ 2.16 µM) | MIC (C. tropicalis (MY1124); [9]): 2 µg/mL (≈ 2.16 µM)
